# Measurements from PMC5997768 (2018).
# Tested on: rats with CCI
# Details: rat, in vivo, iv
compound,measurement,value
"C=CC[N+]1(C)CC[C@]23c4c5ccc(O)c4O[C@H]2C(=O)CC[C@@]3(O)[C@H]1C5 (some centres unmarked) [NLXM, naloxone methiodide]",Effect on FF3-induced analgesia (PPT) in ipsilateral limbs,abolished
same,Effect on PPT in contralateral paws,No changes were observed
